Each block holds one molecule with its values, some of them ahead of it. Where a SMILES comes first, the peptide text is derived from it. Bridges are numbered along the chain shown (N, C = ends). [ ]: non-standard residue; d: D form. The star is where a group is joined. X2 = O=C(c1ccccc1)c1ccc(OCCCC(=O)*)cc1; X1 = O=C(CCCOc1ccc(Cc2ccccc2)cc1)*; Dap = NC[C@H](N)C(=O)O
Key:
[1] = Inhibition of AgrC-1 in Staphylococcus aureus
[2] = Inhibition of AgrC-2 in Staphylococcus aureus
[3] = Inhibition of AgrC-3 in Staphylococcus aureus
[4] = Inhibition of AgrC-4 in Staphylococcus aureus
[5] = Inhibition of AgrC-1 Staphylococcus aureus RN10829 incubated for 45 mins by beta-lactamase reporter gene assay
[6] = Inhibition of AgrC-2 in Staphylococcus aureus RN9372 by beta-lactamase reporter gene assay
[7] = Inhibition of AgrC-2 in Staphylococcus aureus RN9532 by beta-lactamase reporter gene assay
[8] = Agonist activity at AgrC-4 in Staphylococcus aureus RN9371 by beta-lactamase reporter gene assay
[9] = Inhibition of AgrC-1 in Staphylococcus aureus AH1677 incubated for 24 hrs by fluorescence assay
[10] = Inhibition of AgrC-2 in Staphylococcus aureus AH430 incubated for 24 hrs by fluorescence assay
[11] = Inhibition of AgrC-3 in Staphylococcus aureus AH1747 incubated for 24 hrs by fluorescence assay
[12] = Inhibition of AgrC-4 in Staphylococcus aureus AH1872 incubated for 24 hrs by fluorescence assay
Staphylococcus aureus [13] = assay: Agonist activity at AgrC-4 in Staphylococcus aureus RN9371 incubated for 60 to 90 mins by beta-lactamase reporter gene assay
Staphylococcus aureus [14] = assay: Agonist activity at AgrC-1 in Staphylococcus aureus RN9222 incubated for 60 to 90 mins by beta-lactamase reporter gene assay
[15] = Inhibition of AgrC-2 in Staphylococcus aureus RN9372 incubated for 60 to 90 mins in presence of AIP agonist by beta-lactamase reporter gene assay
[16] = Agonist activity at AgrC-3 in Staphylococcus aureus incubated for 60 to 90 mins in presence of AIP agonist by beta-lactamase reporter gene assay
[17] = target: T1, Receptor-histidine kinase AgrC (Staphylococcus aureus, UniProt O07911); assay: Inhibition of AgrC in mid-exponential phase Staphylococcus aureus RN6390B assessed as beta-lactamase activity incubated for 80 mins by spectrophotometric method
T1 sequence (O07911 whole entry): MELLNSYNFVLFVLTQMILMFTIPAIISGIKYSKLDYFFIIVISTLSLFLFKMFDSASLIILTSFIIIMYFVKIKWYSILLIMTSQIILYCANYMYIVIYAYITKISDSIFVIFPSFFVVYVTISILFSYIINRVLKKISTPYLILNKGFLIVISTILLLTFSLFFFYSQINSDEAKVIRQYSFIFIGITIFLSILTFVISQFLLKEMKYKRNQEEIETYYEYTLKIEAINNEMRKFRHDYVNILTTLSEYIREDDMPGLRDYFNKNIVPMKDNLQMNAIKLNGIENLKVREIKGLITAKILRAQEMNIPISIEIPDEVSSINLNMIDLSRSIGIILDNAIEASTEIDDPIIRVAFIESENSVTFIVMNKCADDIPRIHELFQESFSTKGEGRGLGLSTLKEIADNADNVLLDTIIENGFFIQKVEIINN

[18] = Inhibition of AgrC-1 Staphylococcus aureus RN6390B by agr-blaZ reporter gene assay
[19] = Inhibition of AgrC-2 Staphylococcus aureus SA564 by agr-blaZ reporter gene assay
[20] = target: T2, Chloramphenicol acetyltransferase (Staphylococcus epidermidis) (UniProt D2JCN2); assay: Activation of Chloramphenicol acetyltransferase activity in Staphylococcus epidermidis Tu3298 at 200 nM and measured every 15 sec for 20 mins (reference value: 12.5 U/mg)
T2 sequence (whole entry): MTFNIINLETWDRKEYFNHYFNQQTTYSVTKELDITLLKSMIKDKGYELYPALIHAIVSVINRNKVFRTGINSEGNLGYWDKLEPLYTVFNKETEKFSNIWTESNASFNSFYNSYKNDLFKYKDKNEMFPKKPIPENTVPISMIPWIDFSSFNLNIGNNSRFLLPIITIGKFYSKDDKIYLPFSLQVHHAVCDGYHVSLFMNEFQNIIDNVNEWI

Structure (SMILES): CC[C@H](C)[C@H]1NC(=O)[C@@H](Cc2ccccc2)NC(=O)[C@@H](C)NC(=O)[C@H](NC(=O)[C@H](NC(=O)[C@@H](CO)NC(=O)[C@H](N)Cc2ccc(O)cc2)[C@@H](C)O)CSC(=O)[C@@H](CCSC)NC1=O
IC50 [1]: 5 to 303 nM
IC50 [2]: 8 to 18 nM
IC50 [3]: 0.3 nM
IC50 [4]: 3 nM

Structure (SMILES): CC(=O)N[C@H]1CSC(=O)[C@@H](CC(C)C)NC(=O)[C@@H](CC(C)C)NC(=O)[C@@H](Cc2ccccc2)NC(=O)[C@@H](CC(=O)O)NC1=O
IC50 [5]: 16.8 nM

Structure (SMILES): CC[C@@H](C)[C@H](NC(C)=O)C(=O)N[C@H](CC(N)=O)C(=O)N[C@@H]1CSC(=O)[C@@H](Cc2ccccc2)NC(=O)[C@@H](CC(C)C)NC(=O)[C@@H](CC(C)C)NC(=O)[C@@H](C)NC1=O
IC50 [1]: 0.5 nM
IC50 [2]: 0.4 nM
IC50 [3]: 0.05 nM
IC50 [4]: 0.03 nM
IC50 [9]: 0.485 to 2.9 nM
IC50 [10]: 0.429 to 3.5 nM
IC50 [11]: 0.0506 to 0.35 nM
IC50 [12]: 0.0349 to 0.75 nM

Structure (SMILES): CC[C@H](C)[C@@H]1NC(=O)[C@H](Cc2ccccc2)NC(=O)[C@H](Cc2ccc(O)cc2)NC(=O)[C@@H](NC(=O)[C@@H](NC(=O)[C@H](CO)NC(=O)[C@@H](N)Cc2ccc(O)cc2)[C@@H](C)O)CSC(=O)[C@H](CCSC)NC1=O (H-YSTCYFIM; thioester 4-C)
ED50 (Staphylococcus aureus [13]): 13 nM
ED50 (Staphylococcus aureus [14]): 62 nM
IC50 [15]: 4 nM
IC50 [16]: 1 nM

Structure (SMILES): CC(C)C[C@H]1NC(=O)[C@@H](Cc2ccccc2)NC(=O)[C@@H](CC(=O)O)NC(=O)[C@@H](NC(=O)[C@@H](Cc2ccccc2)NC(=O)[C@@H]2CCCN2C(=O)[C@H](N)Cc2ccc(O)cc2)CSC(=O)[C@@H](CC(C)C)NC1=O
IC50 [5]: 0.31 nM

Structure (SMILES): CC(C)C[C@@H]1NC(=O)[C@H](CO)NC(=O)[C@H](CO)NC(=O)[C@@H](NC(=O)[C@H](C)NC(=O)[C@H](CC(N)=O)NC(=O)[C@@H](NC(=O)CN)C(C)C)COC(=O)[C@H](Cc2ccccc2)NC1=O (H-GVNASSSLF; ester 5-C)
IC50 [17]: 7.9 nM

Structure (SMILES): CC[C@H](C)[C@H]1NC(=O)[C@@H](Cc2ccccc2)NC(=O)[C@@H](C)NC(=O)[C@H](NC(C)=O)CSC(=O)[C@@H](CCSC)NC1=O
IC50 [1]: 5 nM
IC50 [2]: 5 nM
IC50 [3]: 0.1 nM
IC50 [4]: 5 nM

Structure (SMILES): CC(C)C[C@@H]1NC(=O)[C@H](CO)NC(=O)[C@H](CO)NC(=O)[C@@H](NC(=O)[C@H](C)NC(=O)[C@H](CC(N)=O)NC(=O)[C@@H](NC(=O)CN)C(C)C)CNC(=O)[C@H](Cc2ccccc2)NC1=O (H-GVNA[Dap]SSLF; lactam 5-C)
IC50 [17]: < 1 nM

Second part, the molecule after the results:

IC50 [6]: 419 nM
IC50 [7]: 36.6 nM
IC50 [8]: > 1000 nM
Structure (SMILES): CC[C@H](C)[C@H](NC(=O)[C@@H](N)CC(=O)O)C(=O)N[C@H]1CSC(=O)[C@H](Cc2ccccc2)NC(=O)[C@H](Cc2ccc(O)cc2)NC(=O)[C@H](C)NC(=O)[C@H](CC(N)=O)NC1=O (H-DICNAYF; thioester 3-C)

IC50 [18]: 21 nM
IC50 [19]: 4 nM
Structure (SMILES): CC[C@H](C)[C@@H]1NC(=O)[C@H](Cc2ccccc2)NC(=O)[C@H](C)NC(=O)[C@@H](NC(=O)[C@@H](NC(=O)[C@H](CO)NC(=O)CCCOc2ccc(C(=O)c3ccccc3)cc2)[C@@H](C)O)CSC(=O)[C@H](CCSC)NC1=O (X2-STCAFIM; thioester 3-C)

IC50 [18]: 295 nM
IC50 [19]: 19 nM
Structure (SMILES): CC[C@H](C)[C@@H]1NC(=O)[C@H](Cc2ccccc2)NC(=O)[C@H](C)NC(=O)[C@@H](NC(=O)[C@@H](NC(=O)[C@H](CO)NC(=O)CCCOc2ccc(Cc3ccccc3)cc2)[C@@H](C)O)CSC(=O)[C@H](CCSC)NC1=O (X1-STCAFIM; thioester 3-C)

IC50 [6]: > 1000 nM
IC50 [7]: 13 nM
IC50 [8]: > 1000 nM
Activity [20]: 53.3 U/mg
Structure (SMILES): CC(C)[C@H](NC(=O)[C@H](CO)NC(=O)[C@@H](N)CC(=O)O)C(=O)N[C@H]1CSC(=O)[C@H](Cc2ccccc2)NC(=O)[C@H](Cc2ccc(O)cc2)NC(=O)[C@H](CO)NC(=O)[C@H](C)NC1=O (H-DSVCASYF; thioester 4-C)

From ChEMBL document CHEMBL4402540, “Structure-Activity Relationship Studies of Small Molecule Modulators of the Staphylococcal Accessory Gene Regulator” (J Med Chem, 2020)
